Measured values reported in patent publication US7455861B2, “Angelicae sinensis extracts useful for treatment of cancers” (priority 2004, dated 2008).
Converted amounts (≈) assume the structure as drawn. “And” between values parts separate entries of the source, which are not always exact repeats. Identical values can stand only once. Like-named read-outs stand apart in the source and are kept apart here.

Legend:
AT12 = experiment: Cytotoxicity (IC50) on AT12; assay type: cell-based; settings: Homo sapiens, read-out: Cytotoxicity (IC50) AT12
Protocol: (§1) The effects on cell viability after the treatments with different concentrations of the Angelicae sinensis extracts or the active components purified therefrom were evaluated by modified MTT assay in triplicate. Briefly, the cells (5×10^3) were incubated into 96-well plates containing 100 μl of a growth medium. The cells were permitted to adhere for 24 hours, then treated with 100 μl of the herbal extracts or the active components dissolved in the medium. The control contained DMSO of <0.02% (v/v). After 24, 48 and 72 h incubation, the drug-containing medium was replaced by 50 μl of fresh medium, and cells in each well were incubated in 50 μl of 400 μg/ml MTT for 6-8 h. The medium and MTT were removed later and 100 μl of DMSO was added to each well and to the control, to dissolve the soluble components. Absorbance at 550 nm of the solutions was measured with MRX Microtiter Plate Luminometer (DYNEX, USA). The absorbance of untreated cells was considered as 100%. To evaluate the effects of the extracts or the active components on cell growth rate of GBM cells, 5×10^3 exponentially growing cells were treated with different concentrations for 24, 48, or 72 h. The cytotoxicity of each test substance was determined as an IC50 value, which represents the drug concentration required to cause 50% inhibition. All experiments in this study were performed in triplicate.

GBM cells (DBTRG-05MG) = experiment: Apoptosis of GBM cells by TUNEL; assay type: cell-based, human
Protocol: Apoptotic cell death was analyzed using In Situ Cell Death Detection Kit, POD (Roche, Germany). Changes in DNA chromatin morphologic features were used for quantification. The procedures were performed in accordance with the manufacturer's instructions. […] In AS-C and BP-treated groups, the suspended cells were collected. In the control group, adherent and floating cells were collected. Then, the cells were fixed with 3.7% formaldehyde at room temperature for 15 min. on saline coated slides, washed once in 1×PBS, and incubated in cold permeabilization solution (0.1% Triton X-100+0.1% sodium citrate) after reducing activity of endogenous peroxidase with 3% H2O2. The cells were washed with 1×PBS again, and incubated with terminal deoxynucleiotidyl transferase (TdT)-mediated dUTP nicks labeling (TUNEL) reaction mixture for 60 minutes at 37° C. Then, the cells were washed with 1×PBS, counterstained with propidium iodide (PI) for cell counting. For quantification of apoptosis, the results were viewed under fluorescence microscopy (Nikon, Kawasaki, Japan).
The apoptotic cells with AS-C treatment were detected by fluorescence microscopy (400×), with In Situ TUNEL staining and propidium iodide cell counterstaining, and observed under light field. Likewise, BP induced apoptosis in GBM cells was assessed by TUNEL method and using propidium iodide as a counter stain. […]

HCT15 = experiment: Cytotoxicity (IC50) on HCT15; assay type: cell-based; settings: Homo sapiens, HCT-15
Protocol: as §1

A549 = experiment: Cytotoxicity (IC50) on A549; assay type: cell-based; settings: Homo sapiens
Protocol: as §1

HUVEC = experiment: Tube formation of HUVEC; assay type: cell-based, human
brain tumor cell lines = experiment: Cytotoxicity (IC50) on brain tumor cell lines, pooled statement; assay type: cell-based; settings: read-out: IC50 to brain tumor cell lines
Protocol: as §1

[1] = Cytotoxicity (IC50) on HDF; assay type: cell-based, human; settings: human, human dermal fibroblasts (HDF), normal cells; Table 1, value in parentheses
Description: (§2) Human umbilical vascular endothelial cells (HUVECs) were purchased from Cascade Biologics, Inc. (USA). HUVECs were maintained in Medium 200 (Cascade Biologics, Inc. USA) supplemented with 10% fetal bovine serum (FBS; Gibco BRL) and low serum growth supplement (LSGS; Cascade Biologics, Inc. USA). Human dermal fibroblasts (HDFs) were purchased from Cascade Biologics, Inc. (USA). HDFs were maintained in Medium 106 (Cascade Biologics, Inc. USA) supplemented with 10% FBS and low serum growth supplement (LSGS; Cascade Biologics, Inc. USA). The human colon adenocarcinoma cell lines HT-29 were purchased from the ATCC (Manassas, Va. USA). HT-29 were maintained in Dubecco's Modified Eagle Medium (DMEM; Gibco) supplemented with 10% FBS and 100 ng/ml penicillin and […] streptomycin (Life Technologies, Inc., Grand Island, N.Y., USA). For the proliferation assay of cell in log growth (G1), the cells were harvested at 60-80% of confluence. 100 μl of cell suspensions were dispensed onto a Falcon 96-well plates The densities were 6×10^3 cells/well in Medium 200 (for HUVECs), and 9×10^3 cells/well in Medium 106 (for HDFs), and 5×10^3 cells/well in DMEM (for HT-29) supplemented with 10% FBS. The cells were pre-incubated for 24 hours in an incubator (Humidified atmosphere, e.g., at 37° C., 5% CO2). 10 μl of toxicant of various concentrations were added into the culture medium of the plate. The cell cultures were incubated for 48 hours. 10 μl of the Cell Counting Kit-8 (CCK-8; DOJINDO) solution were added and the cell cultures incubated for 1˜4 hours in the incubator. The absorbance was measured at 450 nm, using a microplate reader with a reference wavelength at 600 nm or over.
(§3) Human tumor cell lines (MCF-7, CL1-5, HT-29, Caco-2), human umbilical vascular endothelial cells (HUVEC), and human dermal fibroblasts (HDF) were tested for sensitivity on Angelicae sinensis extracts, ligustilide, n-butylidenephthalide and its derivatives in vitro. The DBTRG-05MG, BCM, HL-60 and J5 cells were grown in RPMI-1640 medium containing 10% fetal calf serum and 100 ng/ml penicillin and […] streptomycin at 37° C. in a humidified atmosphere with 5% CO2. The G5T/VGH, RG2, Ni 8, SVEC and Balb/3T3 cells were cultured in DMEM with 10% fetal calf serum and 100 ng/ml penicillin and […] streptomycin at 37° C. in 5% CO2. Mycoplasma infection of the culture cells was excluded by PCR screening methods before each experiment.
as §1, with “To evaluate the effects of the extracts or the active components on cell growth rate of GBM cells, 5×10^3 exponentially growing cells were treated with different concentrations for 24, 48, or 72 h. The cytotoxicity of each test substance was determined as an IC50 value, which represents the drug concentration required to cause 50% inhibition. All experiments in this study were performed in triplicate.” left out

[2] = Cytotoxicity (IC50) on HUVEC; assay type: cell-based, human; settings: human, human umbilical vascular endothelial cells (HUVEC), normal cells, read-out: Cytotoxicity, IC50 HUVEC
Description: as §2, §3, §1

HT-29 = experiment: Cytotoxicity (IC50) on HT-29; assay type: cell-based; settings: Homo sapiens
Description: Human umbilical vascular endothelial cells (HUVECs) were purchased from Cascade Biologics, Inc. (USA). HUVECs were maintained in Medium 200 (Cascade Biologics, Inc. USA) supplemented with 10% fetal bovine serum (FBS; Gibco BRL) and low serum growth supplement (LSGS; Cascade Biologics, Inc. USA). Human dermal fibroblasts (HDFs) were purchased from Cascade Biologics, Inc. (USA). HDFs were maintained in Medium 106 (Cascade Biologics, Inc. USA) supplemented with 10% FBS and low serum growth supplement (LSGS; Cascade Biologics, Inc. USA). The human colon adenocarcinoma cell lines HT-29 were purchased from the ATCC (Manassas, Va. USA). HT-29 were maintained in Dubecco's Modified Eagle Medium (DMEM; Gibco) supplemented with 10% FBS and 100 ng/ml penicillin and […] streptomycin (Life Technologies, Inc., Grand Island, N.Y., USA). […] The absorbance was measured at 450 nm, using a microplate reader with a reference wavelength at 600 nm or over. […]
The effects on cell viability after the treatments with different concentrations of the Angelicae sinensis extracts or the active components purified therefrom were evaluated by modified MTT assay in triplicate. […] Absorbance at 550 nm of the solutions was measured with MRX Microtiter Plate Luminometer (DYNEX, USA). The absorbance of untreated cells was considered as 100%. […]

CCCC=C1OC(=O)c2ccccc21 [BP, n-Butylidenephthalide]
IC50 (AT12): 10 µg/mL to 15 µg/mL and 53.2 µM to 79.8 µM
apoptosis rates of GBM cells compared to untreated cells (TUNEL) (GBM cells (DBTRG-05MG); BP 5 to 800 μM, 48 hours): much higher
detached GBM cells having undergone apoptosis (TUNEL) (GBM cells (DBTRG-05MG); BP 5˜800 μg/ml as printed, 72 hours): almost all
IC50 (HCT15; Table 2): 25 to 30 µg/mL
IC50 (HCT15; Table 2, value in parentheses): 133 to 160 µM
IC50 (A549; Table 2): 8 to 12 µg/mL
IC50 (A549; Table 2, value in parentheses): 42.6 to 63.8 µM
Inhibition Tube Formation (HUVEC): 531.3 µg/mL
Inhibition Tube Formation (HUVEC; value in parentheses): (2826 μM)
IC50 (brain tumor cell lines): 1.4 to 10 µg/mL (≈ 7.44 to 53.1 µM)
IC50 [1]: 1600 µM
IC50 ([2]; Table 1, value in parentheses): > 532 µM
IC50 ([2]; Table 1): > 100 µg/mL
IC50 (HT-29; Table 2): 15 to 97 µg/mL
IC50 (HT-29; Table 2, value in parentheses): 79.8 to 516 µM
